Test [1] relates to NMDAR in primary rat hippocampal neurons. It is filed as cell-based, rat (Sprague-Dawley).
For test [2] the test system is unchanged. The class given is cell-based, rat (Sprague-Dawley). The source holds these as a separate data set.

The values below come from publication PMC3832412 (PLoS ONE, 2013).

Entries after “also recorded” stand apart in the source; their conditions may differ.

As to “GIKAQRDILYYγGγGγEHI-CONH2 [scrambled peptide]”, in test [1], the “inhibition of NMDA-evoked current” value was “did not inhibit NMDA-evoked currents; also recorded: no such inhibitory activity”. For the same substance, the “effect on iCa^2+ levels” value in test [2] is on record as “did not result in any decrease in iCa^2+ levels; also recorded: no significant differences; also recorded: no such inhibitory activity”.
